Results: patent US20230058316A1, “PEGYLATED IGE-DEPENDENT HISTAMINE-RELEASING FACTOR (HRF)-BINDING PEPTIDE AND USE THEREOF” (EWHA UNIVERSITY - INDUSTRY COLLABORATION FOUNDATION, priority 2020, published 2023)
Where no end group is shown, it is not given here.

System: IL-5
Experiment: IL-5 secretion in bronchoalveolar lavage fluid, ovalbumin-induced bronchial asthma and rhinitis mouse model
Format: in vivo
Conditions: 1 mg/kg IP
Experimental: A bronchial asthma and rhinitis animal model was prepared by the following method. An ovalbumin solution was prepared by dissolving ovalbumin in an aluminum hydroxide solution (1 mg/ml) 28 and 14 days before the start of inducing bronchial asthma and rhinitis, and 200 μl of the solution was intraperitoneally injected into each mouse for sensitization. After 14 days of final sensitization, 20 μl of saline/PBS (normal control; NC) or 20 μl of 10 mg/mL ovalbumin solution (positive control; PC) was instilled into the nasal cavity of each lightly anesthetized mouse 4 times every other day for 8 days to induce bronchial asthma and rhinitis.
After the end of the experiment, the amount of IL-5 in the supernatant obtained by centrifuging bronchoalveolar lavage fluid was measured and quantified by enzyme immunosorbent detection using mouse IL-5 ELISA kit (Biolegend, USA).
Next, in order to confirm whether there is an effect of inhibiting IL-5 secretion even when administered in a small number of times, the dTBP2 of Preparative Example 4 and Example 3 was administered to the mouse model of Example 4-1 through intraperitoneal injection once in 4 days for a total of 2 times for 8 days inducing bronchial asthma and rhinitis. The amount of IL-5 was measured and quantified by the enzyme immunosorbent detection method in the same manner.
In addition, the dTBP2 of Preparative Example 4 and Example 3 was administered to the mouse model of Example 4-1 through intraperitoneal injection once on the 1st day of 8 days inducing bronchial asthma and rhinitis. The amount of IL-5 was measured and quantified by the enzyme immunosorbent detection method in the same manner.
The amount of IL-5 was measured and quantified by the enzyme immunosorbent detection method in the same manner.

## Example 3: dTBP2 (WYVYPSM) conjugated at the N-terminal with methoxy polyethylene glycol propionaldehyde (10 kDa) ({mPEG propionaldehyde 10 kDa}-WYVYPSM)
8 times daily for 8 days, FIG. 10
  reduction of IL-5 secretion: about 50%
Once in 4 days for a total of 2 times (FIG. 11) and once on the 1st day (FIG. 12)
  inhibiting IL-5 secretion: effective
Once on the 5th day of 8 days, FIG. 13
  IL-5 secretion inhibitory effect: effectively inhibited
